Source: PubChem BioAssay AID330 (DTP/NCI, 2004)
“And” between values parts separate entries of the source, which are not always exact repeats. Equal entries are not always repeated. Inconclusive results and toxic doses are left out. Rule for the calls: active = survival T/C of 150% or more; inactive = T/C below 125% in these data. Peptide text beside a SMILES is read from it. * marks the point of attachment. Boc = CC(C)(C)OC(=O)*; OtBu = CC(C)(C)O*; NHNH2 = NN*

Tested on: P388 leukemia ip, CD2F1 mice, survival T/C
Assay: NCI In Vivo Anticancer Drug Screen. Data for tumor model P388 Leukemia (intraperitoneal) in CD2F1 (CDF1) mice
Details: endpoint: median survival time, higher = longer survival
Procedure, shortened: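 Mice carrying the transplanted tumor received test compound or vehicle. Survival was recorded in each group, and the value is the treated-group measurement divided by that of the vehicle-treated control group.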

[1] = dose: 50.0 mg/kg/injection, schedule: Q01DX009 (ip), vehicle: saline with Tween-80
[2] = dose: 100.0 mg/kg/injection, schedule: Q01DX009 (ip), vehicle: saline with Tween-80
[3] = dose: 200.0 mg/kg/injection, schedule: Q01DX009 (ip), vehicle: saline with Tween-80
[4] = dose: 50.0 mg/kg/injection, schedule: Q01DX009 (ip), vehicle: saline
[5] = dose: 60.0 mg/kg/injection, schedule: Q01DX005 (ip), vehicle: Klucel (hydroxypropylcellulose) (HPC)
[6] = dose: 120.0 mg/kg/injection, schedule: Q01DX005 (ip), vehicle: Klucel (hydroxypropylcellulose) (HPC)
[7] = dose: 240.0 mg/kg/injection, schedule: Q01DX005 (ip), vehicle: Klucel (hydroxypropylcellulose) (HPC)
[8] = dose: 50.0 mg/kg/injection, schedule: Q01DX009 (ip), vehicle: Klucel (hydroxypropylcellulose) (HPC)
[9] = dose: 100.0 mg/kg/injection, schedule: Q01DX009 (ip), vehicle: Klucel (hydroxypropylcellulose) (HPC)
[10] = dose: 200.0 mg/kg/injection, schedule: Q01DX009 (ip), vehicle: Klucel (hydroxypropylcellulose) (HPC)
[11] = dose: 25.0 mg/kg/injection, schedule: Q01DX001 (ip), vehicle: saline with Tween-80
[12] = dose: 50.0 mg/kg/injection, schedule: Q01DX001 (ip), vehicle: saline with Tween-80
[13] = dose: 100.0 mg/kg/injection, schedule: Q01DX001 (ip), vehicle: saline with Tween-80
[14] = dose: 12.5 mg/kg/injection, schedule: Q01DX001 (ip), vehicle: saline with Tween-80

Measured: T/C

CCOC(=O)N1CCC(n2nncc2OCC)CC1
inactive: dose: 100.0 mg/kg/injection, schedule: Q04DX002 (ip), vehicle: Klucel (hydroxypropylcellulose) (HPC) 102 % of control | dose: 200.0 mg/kg/injection, schedule: Q04DX002 (ip), vehicle: Klucel (hydroxypropylcellulose) (HPC) 102 % of control | dose: 400.0 mg/kg/injection, schedule: Q04DX002 (ip), vehicle: Klucel (hydroxypropylcellulose) (HPC) 105 % of control

O=C(NCCCl)Nc1ccccc1C(=O)O
inactive: [1] 90 % of control | [2] 95 % of control | [3] 99 % of control

CC(=O)[O][Hg][O]C(C)=O
inactive: dose: 1.25 mg/kg/injection, schedule: Q01DX009 (ip), vehicle: saline with Tween-80 95 % of control

COc1ccc(CSC(=S)Nc2ccc(Cl)cc2Cl)cc1
inactive: [4] 106 % of control | dose: 100.0 mg/kg/injection, schedule: Q01DX009 (ip), vehicle: saline 105 % of control | dose: 200.0 mg/kg/injection, schedule: Q01DX009 (ip), vehicle: saline 99 % of control

CNC(=O)NC(c1ccc(F)cc1)c1cc2c(cc1O)OCO2 (stereo unspecified)
inactive: [5] 96 % of control | [6] 96 % of control | [7] 87 % of control

COc1cccc(/C=N/NP(=S)(Oc2ccc(C(C)(C)C)cc2)Oc2ccc(C(C)(C)C)cc2)c1OC
inactive: dose: 50.0 mg/kg/injection, schedule: Q01DX005 (ip), vehicle: saline with Tween-80 98 % of control | dose: 100.0 mg/kg/injection, schedule: Q01DX005 (ip), vehicle: saline with Tween-80 95 % of control | dose: 200.0 mg/kg/injection, schedule: Q01DX005 (ip), vehicle: saline with Tween-80 100 % of control

O=c1[nH]c2ccccc2n1CCCN1CCN(C(c2ccccc2)c2ccccc2)CC1
inactive: [1] 102 % of control | [2] 94 % of control | [3] 95 % of control

COc1ccc(N=Nc2ncc(N)nc2N)cc1
inactive: [5] 107 % of control | [6] 108 % of control | [7] 96 % of control

C=CCSc1nc2ccc(N3C(=O)CCC3=O)cc2s1
inactive: dose: 12.5 mg/kg/injection, schedule: Q01DX009 (ip), vehicle: Klucel (hydroxypropylcellulose) (HPC) 105 % of control | dose: 25.0 mg/kg/injection, schedule: Q01DX009 (ip), vehicle: Klucel (hydroxypropylcellulose) (HPC) 103 % of control | [8] 101 % of control and 102 % of control | [9] 92 % of control | [10] 89 % of control

C1CCC2C(C1)CCC1CCCCC12 (stereo unspecified)
inactive: [11] 96 % of control | [12] 113 % of control | [13] 100 % of control and 114 % of control | dose: 200.0 mg/kg/injection, schedule: Q01DX001 (ip), vehicle: saline with Tween-80 110 % of control

CC(=O)C1C(=O)OC(C)=C(C(=O)O)C1=O (stereo unspecified)
inactive: dose: 50.0 mg/kg/injection, schedule: Q04DX003 (ip), vehicle: saline with Tween-80 109 % of control | dose: 100.0 mg/kg/injection, schedule: Q04DX003 (ip), vehicle: saline with Tween-80 109 % of control | dose: 200.0 mg/kg/injection, schedule: Q04DX003 (ip), vehicle: saline with Tween-80 100 % of control

COc1ccc(C(c2cc3c(cc2O)OCO3)N2CCCCC2)c(OC)c1 (stereo unspecified)
inactive: [5] 108 % of control | [6] 110 % of control | [7] 117 % of control

O=C1C(=C2C=CN(CCN3CCCCC3)C=C2)C(=O)c2ccccc21
inactive: [8] 100 % of control | [9] 100 % of control | [10] 87 % of control

C=CCc1c(O)c(OC)cc2c1C(=O)CCCC2
inactive: [9] 100 % of control | [10] 94 % of control | dose: 400.0 mg/kg/injection, schedule: Q01DX009 (ip), vehicle: Klucel (hydroxypropylcellulose) (HPC) 94 % of control

CCOC(OCC)N(C)C
inactive: dose: 60.0 mg/kg/injection, schedule: Q01DX005 (ip), vehicle: saline 95 % of control | dose: 120.0 mg/kg/injection, schedule: Q01DX005 (ip), vehicle: saline 100 % of control | dose: 240.0 mg/kg/injection, schedule: Q01DX005 (ip), vehicle: saline 93 % of control

CCC(C)C(NC(=O)CNC(=O)OC(C)(C)C)C(=O)NC(C(=O)NC(CCC(=O)OC(C)(C)C)C(=O)NN)C(C)C (stereo unspecified) (Boc-GIVE(OtBu)-NHNH2; configuration not given here)
inactive: dose: 6.25 mg/kg/injection, schedule: Q01DX001 (ip), vehicle: saline with Tween-80 100 % of control | [14] 100 % of control | [11] 95 % of control

COC(=O)NC1=Nc2ccccc2N(C(=O)Oc2ccccc2)S1
inactive: dose: 50.0 mg/kg/injection, schedule: Q01DX005 (ip), vehicle: acetone 100 % of control | dose: 100.0 mg/kg/injection, schedule: Q01DX005 (ip), vehicle: acetone 100 % of control | dose: 200.0 mg/kg/injection, schedule: Q01DX005 (ip), vehicle: acetone 107 % of control

CC(=O)N1CCC23c4ccccc4N(C)C2CC(=O)CC13 (stereo unspecified)
inactive: dose: 8.75 mg/kg/injection, schedule: Q01DX005 (ip), vehicle: Klucel (hydroxypropylcellulose) (HPC) 97 % of control | dose: 17.5 mg/kg/injection, schedule: Q01DX005 (ip), vehicle: Klucel (hydroxypropylcellulose) (HPC) 98 % of control | dose: 35.0 mg/kg/injection, schedule: Q01DX005 (ip), vehicle: Klucel (hydroxypropylcellulose) (HPC) 103 % of control

CCCCCCCCCC[N+]1(CC)CCCC1
inactive: dose: 3.12 mg/kg/injection, schedule: Q01DX009 (ip), vehicle: saline 104 % of control | dose: 6.25 mg/kg/injection, schedule: Q01DX009 (ip), vehicle: saline 100 % of control

c1ccc(C2OCCN2c2ccccc2)cc1 (stereo unspecified)
inactive: [14] 107 % of control | [11] 107 % of control | [12] 107 % of control | [13] 101 % of control

CCCCCCCCOCC(O)CN(CCO)CCO (stereo unspecified)
inactive: dose: 12.5 mg/kg/injection, schedule: Q01DX009 (ip), vehicle: saline 107 % of control | dose: 25.0 mg/kg/injection, schedule: Q01DX009 (ip), vehicle: saline 92 % of control | [4] 94 % of control and 97 % of control

CCOC(=O)c1cnc2cc(Cl)ccc2c1N=[N+]=[N-]
inactive: dose: 60.0 mg/kg/injection, schedule: Q01DX005 (ip), vehicle: saline with Tween-80 91 % of control | dose: 120.0 mg/kg/injection, schedule: Q01DX005 (ip), vehicle: saline with Tween-80 100 % of control | dose: 240.0 mg/kg/injection, schedule: Q01DX005 (ip), vehicle: saline with Tween-80 99 % of control

O=S(=O)(O)C(Nc1ccccc1)c1ccccc1 (stereo unspecified)
inactive: [2] 100 % of control | dose: 100.0 mg/kg/injection, schedule: Q04DX003 (ip), vehicle: saline sonified 100 % of control | [3] 109 % of control | dose: 200.0 mg/kg/injection, schedule: Q04DX003 (ip), vehicle: saline sonified 100 % of control | dose: 400.0 mg/kg/injection, schedule: Q01DX009 (ip), vehicle: saline with Tween-80 104 % of control | dose: 400.0 mg/kg/injection, schedule: Q04DX003 (ip), vehicle: saline sonified 100 % of control

CCCCOCN(COCCCC)C12CC3CC(CC(C3)C1)C2
inactive: [1] 113 % of control

CCCCCCCCCCCCCCCC[N+]1(CC)CCCCCC1
inactive: dose: 0.04 mg/kg/injection, schedule: Q01DX009 (ip), vehicle: saline 110 % of control | dose: 0.09 mg/kg/injection, schedule: Q01DX009 (ip), vehicle: saline 103 % of control and 88 % of control | dose: 0.19 mg/kg/injection, schedule: Q01DX009 (ip), vehicle: saline 89 % of control

Cc1csc(N=Nc2ccc(N(C)C)cc2)[n+]1[O-]
inactive: [8] 103 % of control | [9] 109 % of control | [10] 108 % of control

Cc1cc(O)c(C=O)c2c1C(=O)Oc1c(CO)c(O)c3c(c1O2)C(O)OC3=O (stereo unspecified)
inactive: [1] 124 % of control
